Measurements taken from paper PMC4877593, “Design and Synthesis of Potent in Vitro and in Vivo Anticancer Agents Based on 1-(3′,4′,5′-Trimethoxyphenyl)-2-Aryl-1H-Imidazole” (Scientific Reports, 2016).

Legend:
HeLa = assay: In vitro antiproliferative activity (MTT), HeLa; type: cell-based; conditions: Homo sapiens, tumor cell proliferation, 72 h, mean ± SE
Procedure: (§1) Human T-cell leukemia (CCRF-CEM and Jurkat) and human B-cell leukemia (SEM) cells were grown in RPMI-1640 medium (Gibco, Milano, Italy). Breast adenocarcinoma (MCF7), human cervix carcinoma (HeLa), and human colon adenocarcinoma (HT-29) cells were grown in DMEM medium (Gibco, Milano, Italy), all supplemented with 115 units/mL penicillin G (Gibco, Milano, Italy), 115 μg/mL streptomycin (Invitrogen, Milano, Italy), and 10% fetal bovine serum (Invitrogen, Milano, Italy). Stock solutions (10 mM) of the different compounds were obtained by dissolving them in dimethyl sulfoxide (DMSO). Individual wells of a 96-well tissue culture microtiter plate were inoculated with 100 μL of complete medium containing 8 × 10^3 cells. The plates were incubated at 37 °C in a humidified 5% CO2 incubator for 18 h prior to the experiments. After medium removal, 100 μL of fresh medium containing the test compound at different concentrations was added to each well in triplicate and incubated at 37 °C for 72 h. The percentage of DMSO in the medium never exceeded 0.25%. This was also the maximum DMSO concentration in all cell-based assays described below. […] Different concentrations of the test compounds were added, and viability was determined 72 h later by the MTT test. For cytotoxicity evaluations in resting PBL cultures, non-adherent cells were resuspended (5 × 10^5 cells/mL) and treated for 72 h with the test compounds, as described above.

HT-29 = assay: In vitro antiproliferative activity (MTT), HT-29; type: cell-based; conditions: Homo sapiens, tumor cell proliferation, 72 h, mean ± SE
Procedure: as §1

A549 = assay: In vitro antiproliferative activity (MTT), A549; type: cell-based; conditions: Homo sapiens, tumor cell proliferation, 72 h, mean ± SE
Procedure: as §1

MCF-7 = assay: In vitro antiproliferative activity (MTT), MCF-7; type: cell-based; conditions: Homo sapiens, MCF7, tumor cell proliferation, 72 h, mean ± SE
Procedure: as §1

Jurkat = assay: In vitro antiproliferative activity (MTT), Jurkat; type: cell-based; conditions: Homo sapiens, tumor cell proliferation, 72 h, mean ± SE
Procedure: as §1

RS4;11 = assay: In vitro antiproliferative activity (MTT), RS4;11; type: cell-based; conditions: Homo sapiens, tumor cell proliferation, 72 h, mean ± SE
HL-60 = assay: In vitro antiproliferative activity (MTT), HL-60; type: cell-based; conditions: Homo sapiens, tumor cell proliferation, 72 h, mean ± SE

IC50 (HeLa) [nM]	IC50 (HT-29) [nM]	IC50 (A549) [nM]	IC50 (MCF-7) [nM]	IC50 (Jurkat) [nM]	IC50 (RS4;11) [nM]	IC50 (HL-60) [nM]	melting point [°C]	Compound
1260 ± 172	1920 ± 354	4730 ± 328	2800 ± 721	760 ± 136	> 10000	2100 ± 252	142 to 144	COc1cc(-n2ccnc2-c2ccc(C)cc2)cc(OC)c1OC [Compound 4a, 1-(3′,4′,5′-Trimethoxyphenyl)-2-p-tolyl-1H-imidazole]
1980 ± 126	1400 ± 200	7000 ± 1150	2090 ± 374	4570 ± 758	5680 ± 259	4800 ± 451	130 to 132	CCc1ccc(-c2nccn2-c2cc(OC)c(OC)c(OC)c2)cc1 [Compound 4b, 2-(4′-Ethylphenyl)-1-(3′,4′,5′-trimethoxyphenyl)-1H-imidazole]
337 ± 48	330 ± 36	5600 ± 352	1360 ± 350	407 ± 24	800 ± 58	333 ± 41	158 to 160	COc1cc(-n2ccnc2-c2ccc(SC)cc2)cc(OC)c1OC [Compound 4c, 1-(3′,4′,5′-Trimethoxyphenyl)-2-(4′-(methylthio)phenyl)-1H-imidazole]
51 ± 6.5	112 ± 15	121 ± 56	74 ± 17	90 ± 23	217 ± 46	29 ± 9.5	–	COc1ccc(-c2nccn2-c2cc(OC)c(OC)c(OC)c2)cc1F [Compound 4d, 2-(3′-Fluoro-4′-methoxyphenyl)-1-(3′,4′,5′-trimethoxyphenyl)-1H-imidazole]
263 ± 39	647 ± 83	2600 ± 422	666 ± 231	365 ± 25	715 ± 148	453 ± 14	176 to 178	COc1ccc(-c2nccn2-c2cc(OC)c(OC)c(OC)c2)cc1Cl [Compound 4e, 2-(3′-Chloro-4′-methoxyphenyl)-1-(3′,4′,5′-trimethoxyphenyl)-1H-imidazole]
330 ± 25	377 ± 33	4720 ± 509	509 ± 25	136 ± 38	475 ± 106	413 ± 27	128 to 130	COc1ccc(-c2nccn2-c2cc(OC)c(OC)c(OC)c2)cc1C [Compound 4f, 2-(4′-Methoxy-3′-methylphenyl)-1-(3′,4′,5′-trimethoxyphenyl)-1H-imidazole]
623 ± 98	> 10000	> 10000	> 10000	4930 ± 536	2570 ± 784	> 10000	–	COc1cc(-c2nccn2-c2cc(OC)c(OC)c(OC)c2)ccc1C [Compound 4g, 2-(4′-Methyl-3′-methoxyphenyl)-1-(3′,4′,5′-trimethoxyphenyl)-1H-imidazole]
9160 ± 1590	> 10000	> 10000	> 10000	> 10000	> 10000	3470 ± 467	153 to 155	COc1cc(-n2ccnc2-c2cc(C)c(OC)c(C)c2)cc(OC)c1OC [Compound 4h, 2-(4′-Methoxy-3′,5′-dimethylphenyl)-1-(3′,4′,5′-trimethoxyphenyl)-1H-imidazole]
> 10000	> 10000	> 10000	> 10000	> 10000	> 10000	3930 ± 517	–	COc1ccc(-c2nccn2-c2cc(OC)c(OC)c(OC)c2)cc1OC [Compound 4i, 1-(3′,4′,5′-Trimethoxyphenyl)-2-(3′,4′-dimethoxyphenyl)-1H-imidazole]
> 10000	> 10000	> 10000	> 10000	6630 ± 338	> 10000	> 10000	125 to 127	COc1cc(-n2ccnc2-c2ccc(OC(F)(F)F)cc2)cc(OC)c1OC [Compound 4j, 1-(3′,4′,5′-Trimethoxyphenyl)-2-(4′-(trifluoromethoxy)phenyl)-1H-imidazole]
